The source of these data is ChEMBL document CHEMBL1136380, “Synthesis of beta-lactamase activated nitric oxide donors” (Bioorg Med Chem Lett, 2003).

The nature of test [1]: NO releasing ability of the measured through the formation of nitrite (NO2) in solution, following incubation in the presence of beta-lactamase.
The nature of test [2]: NO releasing ability of the measured through the formation of nitrite (NO2) in solution, following incubation in the absence of beta-lactamase (Compound+penicillinase).
Test [3] is described as follows: The NO releasing ability measured through the formation of nitrite (NO2) in solution, following incubation of the compound.

For `O=C(Cc1cccs1)N[C@@H]1C(=O)N2C(C(=O)O)=C(COC(=O)/N=c3/c[n+](N4CCOCC4)[n-]o3)CS[C@H]12`, the Concentration in test [1] amounted to 2.2 µM; in test [2], 10.2 µM.

`[NH-]c1c[n+](N2CCOCC2)no1`: the Concentration in test [3] was determined as 15.5 µM.
